{"source": "patent US20220053777A1", "about": "“NON-TOXIC ANT-REPELLING GEL” (priority 2013, published 2022)", "experiment": "Observation of polymerization (viscosity increase) of oleic acid with/without fumed silica and air", "format": "physicochemical", "excerpt": "We can conclude that it is the addition of fumed silica to the oleic acid formula which is responsible for promoting this polymerization reaction. […] Based on chemical fundamentals we theorize that it is the fumed silica's high surface area that acts as the catalyst to increase the reaction between the oleic acid and oxygen in the air to promote oxidation, resulting in cross-linking, resulting in polymerization, resulting in an increase in viscosity and hardening. Since only some of the oleic acid molecules participate in this polymerization reaction, the rest of the oleic acid in the gel formulation is free to still act as an effective repellent."}
{"smiles": "CCCCCCCC/C=C\\CCCCCCCC(=O)O", "note": "[Oleic Acid, oleic acid]", "values": [{"measurement": "Polymerization", "setting": "Exposure to Air: Yes", "result": "No"}, {"measurement": "increase in viscosity (polymerization)", "setting": "exposed to air, temperatures normally encountered in the environment", "result": "no substantial increase in viscosity"}]}
